Data from PMC8350397, “GSK137, a potent small-molecule BCL6 inhibitor with in vivo activity, suppresses antibody responses in mice” (The Journal of Biological Chemistry, 2021).

Legend:
[1] = test system: Farage, Karpas422 and VAL cells; test: Cell cycle analysis, Farage, Karpas422, VAL; assay type: cell-based; conditions: 2 or 6 days
Protocol: Farage, ULA, KARPAS-422, and VAL cells were seeded into 6-well tissue culture dishes in a total volume of 6 mL at densities of 6.25 x10^3, 7.81 x10^3, 6.25 x10^3, and 1.56 x10^3 cells/mL, respectively and incubated overnight at 37 °C and 5% CO2. Cells were then treated with 0.1 µM, 1 µM, or 10 µM GSK137 or 1 µM BI3802 for 2 or 6 days at 37 °C and 5% CO2. Cell cycle analysis was performed using the Click-iT EdU Alexa Fluor 647 Flow Cytometry Assay Kit (Thermo Fisher Scientific, Waltham, MA, USA) following the manufacturer’s instructions, with volumes adjusted for a […] U-bottom plate, and with an approximately 1 hour treatment with 10 μM EdU. After EdU treatment, approximately 2x10^5 cells per well were transferred into a 96-well, non-tissue culture treated U-bottom plate and stained with 6.7µg/ml final FxCycle Violet Stain for 30 minutes incubation at room temperature. Cells were then analyzed on a flow cytometer (BD FACS Canto […] or LSR FortessaTM X-20 (Becton Dickinson, Franklin Lakes, NJ, USA)) with compensation each day using one cell line and data analyzed using FlowJo software (version 10.3). Percentages of cells in each phase of the cell cycle were then averaged across technical replicates.

[2] = target: T1, BCL6 in Farage DLBCL cells (Homo sapiens, UniProt P41182); test: Western blot for BCL6 protein degradation; assay type: cell-based; conditions: 1 μM for 24 h
T1 construct: endogenous in cells; host or cells: Farage DLBCL cells
Protocol: Cell pellets were lysed in RIPA buffer containing protease/phosphatase inhibitor cocktail and benzonase, protein concentration determined and samples prepared in reducing conditions and 20 µg of protein loaded per lane. Proteins were then transferred onto a nitrocellulose membrane and probed with rabbit BCL6 antibody (Abcam, Cambridge, UK; ab33901) and mouse GAPDH antibody (Abcam; ab9484) at 1:2000 dilution overnight at 4°C. Blots were probed for 1 hour at room temperature with secondary antibodies (goat anti-rabbit LI-COR, 926-32211 and goat anti-mouse LI-COR, 926-68070) at 1:10,000 dilution). Images were obtained on a LI-COR Odyssey CLx Infrared Imaging System using Image Studio software (Version 5.2).

[3] = target: T2, human BCL6 BTB-POZ domain (SMRT co-repressor peptide) (Homo sapiens, UniProt P41182, C67R/C84N/C8Q); test: BCL6 TR-FRET assay, SMRT peptide displacement; assay type: binding
T2 construct: BCL6-Flag-6H-Avi (5-129) C8Q, C67R, C84N proteins; Flag (C); 6H (His6) (C); made in house; host or cells: E. coli
Protocol: Human, mouse and rat BCL6-Flag-6H-Avi (5-129) C8Q, C67R, C84N proteins were expressed in E. coli according to standard procedures and purified on Ni-NTA, followed by ion exchange on a Source 30Q column and size exclusion on an Superdex 200 column in a buffer of 20 mM Tris, 250 mM NaCl, 5 mM DTT, 5% glycerol, pH 8.5. All protein purities were estimated to be >90% by SDS-PAGE and the expected masses were confirmed by MS analysis. For TR-FRET assay protein was enzymatically biotinylated by treatment of protein at 100 µM with a 2 fold molar excess of biotin in the presence of 2 mM ATP and 1 µM BirA enzyme in a buffer of 50 mM bicine pH 8.3, 10 mM MgCl2 at 30 °C for 1 hour, followed by extensivedialysis against 50 mM Tris-Cl pH 8.0, 100 mM NaCl, 1 mM DTT using a 3.5 kDa cut-off membrane. Biotinylation was confirmed by MS analysis and concentration was determined by Bradford assay, after which protein was stored in aliquots at -80 °C.
Acceptor-labelled SMRT peptide H2N-[…](D2)-OH was dissolved in water by mass to give a 500 µM stock solution which was stored at -20 °C. Acceptor-labelled NCOR peptide H2N-[…](Alexa Fluor 647)-OH and acceptor-labelled BCOR peptide H2N-[…](Alexa Fluor 647)-OH were dissolved to a nominal concentration of 1 mM in DMSO, and stock solution concentration was determined by absorbance at 650 nm using an extinction coefficient of 270,000 M-1cm^-1. […]

## CNC(=O)COc1cc2cc(Nc3nc(N4C[C@H](C)C[C@H](C)C4)ncc3Cl)ccc2n(C)c1=O [BI3802, reference compound]
[1]
  fraction of cells in G1: only minor increase in the fraction of cells in G1
[2]
  degradation of intracellular BCL6 protein: degraded BCL6
[3]; cell-free
  activity in cell-free assay compared with reported potency: consistent with the previously reported potency

## Cc1ncccc1[C@H]1C[C@@H](c2cccc3nc(N)ccc23)Nc2c(F)cnn21 [GSK137, 5-((5S,7R)-3-Fluoro-7-(2-methylpyridin-3-yl)-4,5,6,7-tetrahydropyrazolo[1,5-a]pyrimidin-5-yl)quinolin-2-amine]
[1]
  fraction of cells in G1: only minor increase in the fraction of cells in G1
[2]
  degradation of intracellular BCL6 protein: did not show this activity
[3]; from pIC50 = 8, read-out: affinity for the BCL6 BTB-POZ domain
  IC50: 10 nM
